We go through eleven compounds from patent publication US20130178475A1, “sGC STIMULATORS” (IRONWOOD PHARMACEUTICALS, INC., priority 2010, published 2013).

SMILES strings stand for the structures.

This experiment concerns the target T1, soluble guanylate cyclase (sGC) (Homo sapiens, UniProt Q02108+Q02153).
T1 construct: endogenously expressing soluble guanylate cyclase (sGC); endogenous in cells; host or cells: HEK293
T1 sequence (Q02153 1-619): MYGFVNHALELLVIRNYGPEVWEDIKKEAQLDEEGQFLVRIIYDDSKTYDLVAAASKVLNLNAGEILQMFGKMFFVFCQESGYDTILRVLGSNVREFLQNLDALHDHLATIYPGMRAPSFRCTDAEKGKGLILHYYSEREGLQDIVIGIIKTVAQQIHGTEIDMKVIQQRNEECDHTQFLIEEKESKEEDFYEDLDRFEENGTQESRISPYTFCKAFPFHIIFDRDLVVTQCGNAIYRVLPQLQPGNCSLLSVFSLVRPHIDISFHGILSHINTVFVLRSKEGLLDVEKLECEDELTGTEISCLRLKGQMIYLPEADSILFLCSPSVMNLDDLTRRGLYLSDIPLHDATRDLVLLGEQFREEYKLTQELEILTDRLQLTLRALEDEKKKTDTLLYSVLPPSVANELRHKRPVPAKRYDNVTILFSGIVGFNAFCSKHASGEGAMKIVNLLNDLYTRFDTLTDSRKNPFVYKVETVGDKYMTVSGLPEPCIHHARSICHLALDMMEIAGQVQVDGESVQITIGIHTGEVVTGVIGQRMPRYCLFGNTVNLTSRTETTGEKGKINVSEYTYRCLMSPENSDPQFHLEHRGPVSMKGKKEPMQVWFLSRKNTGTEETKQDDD
T1 sequence (Q02108 1-690): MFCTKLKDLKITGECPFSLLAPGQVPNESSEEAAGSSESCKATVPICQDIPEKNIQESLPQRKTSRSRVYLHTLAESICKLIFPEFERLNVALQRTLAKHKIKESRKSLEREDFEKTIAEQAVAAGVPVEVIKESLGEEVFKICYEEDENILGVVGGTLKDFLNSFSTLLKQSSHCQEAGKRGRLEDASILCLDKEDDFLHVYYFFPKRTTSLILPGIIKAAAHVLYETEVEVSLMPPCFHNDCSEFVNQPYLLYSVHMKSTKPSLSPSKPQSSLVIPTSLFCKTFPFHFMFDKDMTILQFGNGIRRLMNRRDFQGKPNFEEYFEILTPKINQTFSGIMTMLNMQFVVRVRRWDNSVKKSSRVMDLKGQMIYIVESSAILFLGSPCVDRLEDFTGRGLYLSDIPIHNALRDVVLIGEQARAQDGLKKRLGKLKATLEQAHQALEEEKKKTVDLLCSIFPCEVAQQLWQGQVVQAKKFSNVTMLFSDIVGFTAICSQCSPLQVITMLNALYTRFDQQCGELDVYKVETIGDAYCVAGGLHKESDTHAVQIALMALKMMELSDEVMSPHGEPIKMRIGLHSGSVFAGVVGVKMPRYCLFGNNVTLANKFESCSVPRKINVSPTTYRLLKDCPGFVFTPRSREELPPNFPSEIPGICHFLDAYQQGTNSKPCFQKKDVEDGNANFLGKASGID
As to the kind of experiment: sGC-HEK-cGMP assay. It counts as cell-based. The following applies: HEK293 cells, 10 min incubation, intracellular cGMP by LC/MS; for Increase in cGMP Concentration Tested at 10 μM in HEK Assay: test compound 10 μM; for Increase in cGMP Concentration Tested at 30 μM in HEK Assay: test compound 30 μM. On the procedure:
Human embryonic kidney cells (HEK293), endogenously expressing soluble guanylate cyclase (sGC), were used to evaluate the activity of test compounds. Compounds stimulating the sGC receptor should cause an increase in the intracellular concentration of cGMP. […] Cells were then incubated for 15 minutes at 37° C. with 0.5 mM 3-isobutyl-1-methylxanthine (2004). Test article was then added to the assay mixture (2 μL) and incubated at 37° C. for 10 minutes. After the 10 minute incubation, the assay mixture was aspirated and 0.1M HCl (2004) was added to the cells. The plate was incubated at 4° C. for 30 minutes in the 0.1M HCl to stop the reaction and lyse the cells. The plates were then centrifuged at 1,200 g for 5 minutes at room temperature. Supernatants were collected and transferred to a new flat bottom 96 well plate for analysis. Vehicle controls were carried out using DMSO (1%). A known sGC stimulator, BAY 41-2272, was used as the positive control.
Samples were diluted with an equal volume of 1 M Ammonium Acetate (pH 7) to neutralize samples for better chromatography. A 2×cGMP standard curve was prepared in 0.1 M HCl and then diluted with an equal volume of 1 M Ammonium Acetate, with the following final concentrations in nM: 1024, 512, 256, 128, 64, 32, 16, 8, 4, 2, 1.
cGMP concentrations were determined from each sample using the LC/MS conditions (Table 2 below) and calculated standard curve. EC50 values were calculated from concentration-response curves generated with GraphPad Prism Software.

Take `Fc1ccccc1Cn1nc(-c2ncccn2)c2c1CCC2` [Compound I-2]: the “Increase in cGMP Concentration Tested at 10 μM in HEK Assay” value (“Increase … at 10 μM in HEK Assay” for short) is “C (C represents an increase ranging from 10 fold to less than 20 fold)” and the “Increase in cGMP Concentration Tested at 30 μM in HEK Assay” value (shortened to “Increase … at 30 μM in HEK Assay”) is on record as “D (D represents an increase ranging from 20 fold to less than 50 fold)”.

`c1cnc(-c2nn(Cc3cccc4ccsc34)c3c2CCCC3)nc1` [Compound I-10]: the “Increase … at 10 μM in HEK Assay” value is “B (B represents an increase ranging from 5 fold to less than 10 fold)” and the “Increase … at 30 μM in HEK Assay” value is reported as “B (B represents an increase ranging from 5 fold to less than 10 fold)”.

For the compound `CC1(C)C=Cc2c(c(-c3ncccn3)nn2Cc2ccccc2F)C1` [Compound I-29], the “Increase … at 10 μM in HEK Assay” value is given as “A (A represents no increase or an increase ranging from more than 0 fold to less than 5 fold)” and the “Increase … at 30 μM in HEK Assay” value is given as “B (B represents an increase ranging from 5 fold to less than 10 fold)”.

Turning to `CC1(C)Cc2c(c(-c3ncccn3)nn2Cc2ccccc2F)C(O)C1` (stereo not shown) [Compound I-32], the “Increase … at 10 μM in HEK Assay” value was “A (A represents no increase or an increase ranging from more than 0 fold to less than 5 fold)” and the “Increase … at 30 μM in HEK Assay” value was “A (A represents no increase or an increase ranging from more than 0 fold to less than 5 fold)”.

Take `CC1(C)CCc2c(c(-c3ncccn3)nn2Cc2ccccc2F)C1` [Compound I-17]: the “Increase … at 10 μM in HEK Assay” value is “B (B represents an increase ranging from 5 fold to less than 10 fold)” and the “Increase … at 30 μM in HEK Assay” value is “A (A represents no increase or an increase ranging from more than 0 fold to less than 5 fold)”.

With `Nc1nc(-c2nn(Cc3ccccc3F)c3c2CCCC3)nc(N)c1NC(=O)OCCCl` [Compound I-25], the “Increase … at 10 μM in HEK Assay” value is reported as “A (A represents no increase or an increase ranging from more than 0 fold to less than 5 fold)” and the “Increase … at 30 μM in HEK Assay” value is given as “B (B represents an increase ranging from 5 fold to less than 10 fold)”.

As for `c1cnc(-c2nn(Cc3cccc4ccccc34)c3c2CCCC3)nc1` [Compound I-11], the “Increase … at 10 μM in HEK Assay” value was “A (A represents no increase or an increase ranging from more than 0 fold to less than 5 fold)” and the “Increase … at 30 μM in HEK Assay” value is listed as “A (A represents no increase or an increase ranging from more than 0 fold to less than 5 fold)”.

Turning to `Fc1ccccc1Cn1nc(-c2cncnc2)c2c1CCCC2` [Compound I-47, 1-(2-fluorobenzyl)-3-(pyrimidin-5-yl)-4,5,6,7-tetrahydro-1H-indazole], the “Increase … at 10 μM in HEK Assay” value is “A (A represents no increase or an increase ranging from more than 0 fold to less than 5 fold)” and the “Increase … at 30 μM in HEK Assay” value is listed as “A (A represents no increase or an increase ranging from more than 0 fold to less than 5 fold)”.

Turning to `CC1(C)CCCc2c(-c3ncccn3)nn(Cc3ccccc3F)c21` [Compound I-16], the “Increase … at 10 μM in HEK Assay” value was “A (A represents no increase or an increase ranging from more than 0 fold to less than 5 fold)” and the “Increase … at 30 μM in HEK Assay” value is recorded as “B (B represents an increase ranging from 5 fold to less than 10 fold)”.

As for `Nc1nc(-c2nn(Cc3ccccc3F)c3c2CCCC3)ncc1-c1ccncc1` [Compound I-27], the “Increase … at 10 μM in HEK Assay” value is given as “A (A represents no increase or an increase ranging from more than 0 fold to less than 5 fold)” and the “Increase … at 30 μM in HEK Assay” value was “A (A represents no increase or an increase ranging from more than 0 fold to less than 5 fold)”.

On to `O=S(=O)(c1ccccc1)N1CCc2c(c(-c3ncccn3)nn2Cc2ccccc2F)C1` [Compound I-53, 1-(2-fluorobenzyl)-5-(phenylsulfonyl)-3-(pyrimidin-2-yl)-4,5,6,7-tetrahydro-1H-pyrazolo[4,3-c]pyridine], for which the “Increase … at 10 μM in HEK Assay” value was “A (A represents no increase or an increase ranging from more than 0 fold to less than 5 fold)” and the “Increase … at 30 μM in HEK Assay” value was “A (A represents no increase or an increase ranging from more than 0 fold to less than 5 fold)”.
